Patent US4552888A, “Ascorbic acid ethers in angiogene” (Eli Lilly and Company, priority 1983, dated 1985)
Counter-ions that a name gives are not always drawn. Like-named read-outs stand apart in the source and are kept apart here. One block for each molecule: values may come before it.

Experiments:
[1] = pKa by titration; assay type: physicochemical
[2] = tested on: angiogenesis factor; experiment: Inhibition of angiogenesis factor (3683 Morris hepatoma lysosomal-mitochondrial pellet) induced serpentine vessels in mice; assay type: in vivo, mice (SPF/ND4 female)
Description: Lysosomal-mitochondrial pellets containing angiogenesis factor are prepared from 3683 Morris hepatoma. The pellet is diluted with 7-8 ml. of 15% ficoll. With this dilution, 8-10 serpentine vessels will be produced per 0.2 cc. injection as described below for the control group.
Next, 15 SPF/ND4 female mice weighing 20-22 g. are shaved on the left side and then divided into three groups of five each. One group (drug group) is injected subcutaneously and laterally with 0.20 cc. of the lysosomal-mitochondrial preparation diluted with 15% ficoll. This group of mice is then dosed individually by the intraperitoneal route with 0.5 cc. of a solution or suspension in a standard vehicle containing the compound under test, usually at an initial dose level of 300 mg./kg. If this dose level is toxic, two-fold dilutions are made until all mice survive a single dose. The second group of mice (control group) is injected subcutaneously and laterally with 0.2 cc. of the lysosomal-mitochondrial suspension diluted with 15% ficoll and dosed intraperitoneally with 0.5 cc. of the vehicle alone. The third group (negative control) is injected with ficoll solution only (no treatment with drug or vehicle). The mice are sacrificed after 24 hours. Each mouse is placed on its side on a dissecting board with the shaved side up. Starting at the flank, the skin is cut straight to the back of the animal. A similar cut is made behind the front leg. Then the skin is cut along the back making a flap of about one inch by two inches. The skin is carefully separated from the connective tissue using forceps and a scalpel. The skin flap is then laid back exposing the lysosomal-mitochondrial implant which is attached to the skin. The skin flap is gently flattened out and with the use of a binocular dissecting scope, serpentine vessels are observed around the lysosomal-mitochondrial implant and their number counted. All observations of the number of serpentine vessels are made at the same power of the microscope (1X). The average number of serpentine vessels for each group is calculated. The percent inhibition is then calculated according to the following equation. [formula] where sv=average number of serpentine vessels.
If the negative control group described above has any serpentine vessels, the test is invalid due to contamination of the ficoll solution.
Table I covers compounds according to formula I above in which R^2 and R^3 are both H, table II covers compounds in which R^2 and R^3 form a 1-methylethylidene group, and Table III compounds in which R^2 plus R^3 equal a benzylidene group or other group.
One of the compounds of this invention, 3-O-n-octadecyl-5,6-O-(1-methylethylidene)-L-ascorbic acid was tested at a series of dose levels for its ability to inhibit tumor angiogenesis and the results of these tests are set forth in Table IV.

[3] = Mus musculus, ip, 24 h, Table 1, i.p., dose 25 mg./kg., 24 hours, read-out: average % inhibition (serpentine vessels)
[4] = Mus musculus, ip, 24 h, Table 3, 150 mg./kg. dose intraperitoneally
[5] = Mus musculus, ip, 24 h, Table 2, dose 150 mg./kg.
[6] = Table 2, i.p., dose 10 mg./kg., 24 hours
[7] = Mus musculus, ip, 24 h, Table 1
[8] = Mus musculus, ip, 24 h, Table 2, i.p., dose 25 mg./kg., 24 hours, read-out: % inhibition (serpentine vessels)

titratable group [1]: No titratable group
SMILES: CC1(C)OC[C@@H]([C@H]2OC(=O)C(OCc3ccc(F)cc3)=C2OCc2ccc(F)cc2)O1 [2,3-O-bis(4-fluorobenzyl)-5,6-O-(1-methylethylidene)-L-ascorbic acid]
inhibition in vivo at 37.5 mg/kg ([2]; Mus musculus, ip, 24 h, Table 2, dose 37.5 mg./kg.): 45%

pKa ([1]; read-out: pKa): 11.6
SMILES: CCCCCCCCCCCCCCCCCCOC1=C(O)C(=O)O[C@@H]1[C@H](O)CO (relative stereo) [3-O-n-octadecyl isoascorbic acid]

pKa ([1]; read-out: pKa): 10.6
SMILES: COc1ccc(OC)c(C(=O)COC2=C(O)C(=O)O[C@@H]2[C@@H]2COC(C)(C)O2)c1 [3-O-(2,5-dimethoxyphenacyl)-5,6-O-(1-methylethylidene)-L-ascorbic acid]

pKa ([1]; read-out: pKa): 11.1
SMILES: CCCCCCCCCCCCCCCCOC1=C(O)C(=O)O[C@@H]1[C@@H](O)CO [3-O-n-hexadecyl)-L-ascorbic acid]
inhibition in vivo at 25 mg/kg [2, 3]: 31%

SMILES: COCCOC1=C(O)C(=O)O[C@@H]1[C@@H]1COC(c2ccccc2)O1 (stereo partly drawn) [3-(2-methoxyethyl)-5,6-O-benzylidine-L-ascorbic acid]
inhibition in vivo at 150 mg/kg [2, 4]: 31%

pKa ([1]; read-out: pKa): 10.7
SMILES: CC1(C)OC[C@@H]([C@H]2OC(=O)C(O)=C2OCCCOc2ccccc2)O1 [3-O-(3-phenoxypropyl)-5,6-O-(1-methylethylidene)-L-ascorbic acid]
inhibition in vivo at 150 mg/kg [2, 5]: 36%

SMILES: O=C1O[C@H]([C@@H](O)CO)C(OCc2ccccc2Cl)=C1O [R=2-chlorobenzyl, R^1=H (Table 1)]
average % inhibition (serpentine vessels) ([2]; Table 1, i.p., dose 25 mg./kg., 24 hours): 55%

pKa ([1]; read-out: pKa): 11
SMILES: CCCCCCCCCCCCCCCCCCOC1=C(O)C(=O)O[C@H]1[C@H](O)CO [3-O-n-octadecyl-D-ascorbic acid]

titratable group [1]: No titratable groups
SMILES: CCCCCCCCCCCCCCCOC1=C(OCCCCCCCCCCCCCCC)[C@@H]([C@@H]2COC(C)(C)O2)OC1=O [2,3-O-bis(n-pentadecyl)-5,6-O-(1-methylethylidene)-L-ascorbic acid]

SMILES: CCCCOC1=C(O)C(=O)O[C@@H]1[C@@H]1COC(C)(C)O1 [R=n-butyl, R^1=H (Table 2)]
% inhibition (serpentine vessels) [2, 6]: 60%

SMILES: O=C1O[C@H]([C@@H](O)CO)C(OCc2cccc(F)c2)=C1O [3-O-(3-fluorobenzyl)-L-ascorbic acid]
inhibition in vivo at 25 mg/kg [2, 3]: 52%

titratable group [1]: No titratable group
SMILES: Cc1ccccc1COC1=C(OCc2ccccc2C)[C@@H]([C@@H]2COC(C)(C)O2)OC1=O [2,3-bis(O-2-methylbenzyl)-5,6-O-(1-methylethylidene-L-ascorbic acid]

pKa ([1]; read-out: pKa): 9
SMILES: CCCCCCCCCCCCCCCCCCOC1=C(O)C(=O)O[C@@H]1[C@@H]1COC(C)(CCl)O1 (stereo partly drawn) [3-O-n-octadecyl-5,6-O-(1-chloromethylethylidene)-L-ascorbic acid]

SMILES: O=C1O[C@H]([C@@H](O)CO)C(OCCN2C(=O)c3ccccc3C2=O)=C1O [3-O-(2-phthalimidoethyl)-L-ascorbic acid]
inhibition in vivo at 300 mg/kg [2, 7]: 55%

pKa ([1]; read-out: pKa): 10.1
SMILES: CC1(C)OC[C@@H]([C@H]2OC(=O)C(O)=C2OCc2ccc([N+](=O)[O-])cc2)O1 [3-O-(4-nitrobenzyl)-5,6-O-(1-methylethylidene)-L-ascorbic acid]
inhibition in vivo at 150 mg/kg [2, 5]: 42 to 85%

SMILES: Cc1cccc(COC2=C(O)C(=O)O[C@@H]2[C@@H](O)CO)c1 [3-O-(3-methylbenzyl)-L-ascorbic acid]
inhibition in vivo at 25 mg/kg [2, 3]: 54%

SMILES: O=C(O)CCCCCCCCCCOC1=C(O)C(=O)O[C@@H]1[C@@H](O)CO [3-O-(ω-hydroxycarbonyldecyl)-L-ascorbic acid]
inhibition in vivo at 25 mg/kg [2, 3]: 41%

pKa ([1]; read-out: pKa): 10.9
SMILES: CCCCCCCCCCCCCCCOC1=C(O)C(=O)O[C@@H]1[C@@H]1COC(C)(C)O1 [3-O-n-pentadecyl-5,6-O-(1-methylethylidene)-L-ascorbic acid]

pKa ([1]; read-out: pKa): 10.8
SMILES: CC1(C)OC[C@@H]([C@H]2OC(=O)C(O)=C2OCCCCCCCCCCCO)O1 [3-O-(11-hydroxyundecyl)-5,6-O-(1-methylethylidene)-L-ascorbic acid]
inhibition in vivo at 150 mg/kg [2, 5]: 67%

titratable group [1]: no titratable group
SMILES: CCCCCCCCCCCCCCCCOC1=C(OCCCCCCCCCCCCCCCC)[C@@H]([C@@H](O)CO)OC1=O [2,3-di-(O-n-hexadecyl)-L-ascorbic acid]

pKa ([1]; read-out: pKa): 6.48
SMILES: CCCCCCCCCCC1OC[C@@H]([C@H]2OC(=O)C(O)=C2O)O1 (stereo partly drawn) [5,6-O-undecylidene-L-ascorbic acid]

SMILES: CCCCCCCCCCOC1=C(O)C(=O)O[C@@H]1[C@@H]1COC(C)(C)O1 [R=n-decyl, R^1=H (Table 2)]
% inhibition (serpentine vessels) [2, 6]: 48%

pKa ([1]; read-out: pKa): 10.3
SMILES: CC1(C)OC[C@@H]([C@H]2OC(=O)C(O)=C2OCCN2C(=O)c3ccccc3C2=O)O1 [3-O-(2-phthalimidoethyl)-5,6-O-(1-methylethylidene)-L-ascorbic acid]
inhibition in vivo at 120 mg/kg ([2]; Mus musculus, ip, 24 h, Table 2, dose 120 mg./kg.): 30%

pKa ([1]; read-out: pKa): 6.1
SMILES: CC1(CCl)OC[C@@H]([C@H]2OC(=O)C(O)=C2O)O1 (stereo partly drawn) [5,6-O-(1-chloromethylethylidene)-L-ascorbic acid]

SMILES: CCCCCCOC1=C(O)C(=O)O[C@@H]1[C@@H]1COC(C)(C)O1 [R=n-hexyl, R^1=H (Table 2)]
% inhibition (serpentine vessels) [2, 6]: 41%

titratable group [1]: No titratable group
SMILES: CC1(C)OC[C@@H]([C@H]2OC(=O)C(OCCCCC#N)=C2OCCCCC#N)O1 [2,3-O-bis(4-cyanobutyl)-5,6-O-(1-methylethylidene)-L-ascorbic acid]

pKa [1]: 10.31
SMILES: COCCOC1=C(O)C(=O)O[C@@H]1[C@@H]1COC(C)(C)O1 [3-O-(2-methoxyethyl)-5,6-O-(1-methylethylidene)-L-ascorbic acid]
% inhibition (serpentine vessels) ([2]; Table 2, i.p., range dose 10-240 mg./kg., 24 hours): 28-61%

pKa ([1]; read-out: pKa): 10.5
SMILES: O=C1O[C@H]([C@@H](O)CO)C(OCc2cccc(Br)c2)=C1O [3-O-(3-bromobenzyl)-L-ascorbic acid]
inhibition in vivo at 300 mg/kg [2, 7]: 74%

SMILES: COC1=C(O)C(=O)O[C@@H]1[C@@H]1COC(C)(C)O1 [R=methyl, R^1=H (Table 2)]
% inhibition (serpentine vessels) [2, 6]: 15%

pKa ([1]; read-out: pKa): 6.55
SMILES: O=C1OC(C2COC(Cc3ccccc3)(Cc3ccccc3)O2)C(O)=C1O [5,6-O-(1-benzyl-2-phenylethylidene)-L-ascorbic acid]

pKa ([1]; read-out: pKa): 10.8
SMILES: Cc1ccccc1COC1=C(O)C(=O)O[C@@H]1[C@@H](O)CO [3-O-(2-methylbenzyl)-L-ascorbic acid]

SMILES: O=C1O[C@H]([C@@H](O)CO)C(OCCCOc2ccccc2)=C1O [3-O-(3-phenoxypropyl)-L-ascorbic acid]
inhibition in vivo at 300 mg/kg [2, 7]: 68%

SMILES: O=C1O[C@H]([C@@H](O)CO)C(OCCOCCBr)=C1O [3-O-(2-bromoethoxyethyl)-L-ascorbic acid]
inhibition in vivo at 300 mg/kg [2, 7]: 36%

SMILES: CCCCOC1=C(O)C(=O)O[C@@H]1[C@@H]1COC(c2ccccc2)O1 (stereo partly drawn) [3-O-n-butyl-5,6-O-(benzylidene)-L-ascorbic acid]
inhibition in vivo at 150 mg/kg [2, 4]: 60%

SMILES: O=C1O[C@H]([C@@H](O)CO)C(OCc2cccc(Cl)c2)=C1O [3-O-(3-chlorobenzyl)-L-ascorbic acid]
inhibition in vivo at 25 mg/kg [2, 3]: 41%

SMILES: CC1(C)OC[C@@H]([C@H]2OC(=O)C(O)=C2OCc2cccc(F)c2)O1 [3-O-(3-fluorobenzyl)-5,6-O-(1-methylethylidene)-L-ascorbic acid]
inhibition in vivo at 25 mg/kg [2, 8]: 27 to 82%

titratable group [1]: No titratable group
SMILES: CCCCCCCCCCCCCCCCCCOC1=C(OCCCCCCCCCCCCCCCCCC)[C@@H]([C@@H]2COC(C)(C)O2)OC1=O [2,3-O-bis(n-octadecy-5,6-O-(1-methylethylidene)-L-ascorbic acid]
inhibition in vivo at 25 mg/kg [2, 8]: 18 to 85%

pKa ([1]; read-out: pKa): 10.4
SMILES: CC1(C)OC[C@@H]([C@H]2OC(=O)C(O)=C2OCCOCCBr)O1 [3-O-(2-bromoethoxyethyl)-5,6-O-(1-methylethylidene)-L-ascorbic acid]
inhibition in vivo at 240 mg/kg ([2]; Mus musculus, ip, 24 h, Table 2, dose 240 mg./kg.): 71%

pKa ([1]; read-out: pKa): 8
SMILES: CCCCCCCCCCCCCCCCCCOC1=C(OCCCN(C)C)C(=O)O[C@@H]1[C@@H](O)CO [2-O-(3-dimethylaminopropyl)-3-O-n-octadecyl-L-ascorbic acid hydrochloride]

SMILES: CCCCCCCCCCCCCCCOC1=C(O)C(=O)O[C@@H]1[C@@H](O)CO [3-O-n-pentadecyl-L-ascorbic acid]
inhibition in vivo at 300 mg/kg [2, 7]: 50%

SMILES: CCOC(=O)COC1=C(O)C(=O)O[C@@H]1[C@@H]1COC(C)(C)O1 [R=C2 H5 OCOCH2, R^1=H (Table 2)]
% inhibition (serpentine vessels) [2, 6]: 12%
